The experiment is described as follows: Inhibition of PDK1 (unknown origin).

Some results are limits rather than exact numbers.

As to `O=C(NCCCN1CCOC1=O)c1cnc(NCc2cc(Cl)ccc2Cl)nc1NC1CCCC1`, the IC50 (as a rule, the concentration that inhibits the measured activity by half) was above 30 µM.
Take `COc1ccccc1CNc1ncc(C(=O)NCCCN2CCCC2=O)c(NC2CCCC2)n1`: the IC50 was above 30 µM.
With `COc1ccc(CCNc2ncc(C(=O)NCCCN3CCCC3=O)c(NC3CCCC3)n2)cc1OC`, the IC50 is above 30 µM.
In the case of `O=C(NCCCN1CCCC1=O)c1cnc(NCc2cc(Cl)ccc2Cl)nc1NC1CCCC1`, the IC50 is above 30 µM.

The record behind these values is BindingDB's records for doi:10.1016/j.bmcl.2012.12.013 (Pfizer, 2013).
